Results reported in patent US10792265B2, “Methods of treating or preventing fibrotic lung diseases” (YALE UNIVERSITY, priority 2014, dated 2020).
Entries after “also recorded” stand apart in the source; their conditions may differ.

Legend:
[1] = test system: bleomycin-induced fibrosis in mice; test: Bleomycin-induced lung fibrosis model in mice (hydroxyproline, collagen, qRT-PCR of fibrotic genes, Masson trichrome); format: in vivo
[2] = T3 and TSH level in the sera of treated bleomycin mice (ELISA); format: in vivo
[3] = test system: bleomycin-induced mortality; test: Bleomycin-induced mortality by Kaplan-Meier survival curve analysis; format: in vivo, mice; conditions: bleomycin 4.5 U/kg intratracheally day 0; T3 40 μg/kg nebulized and inhaled every other day since day 7 (FIG. 5F)
Experimental: 40 μg/kg of T3 was nebulized and inhaled day 10, 12, 14, 16 after bleomycin treatment at dose of 1.5 U/kg, Saline as control. Mice were sacrificed at day 21. […] FIG. 5B: Col1a1 mRNA expression was detected by QRT-PCR (n=8 in each group). FIG. 5C: Col3a1 mRNA expression was detected by QRT-PCR. […] FIG. 5F: Bleomycin-induced mortality by Kaplan-Meier survival curve analysis. 4.5 U/kg of bleomycin was delivered intratracheally at day 0, 40 μg/kg of T3 was nebulized and inhaled every other day since day 7, saline treatment as control group.

[4] = test system: alveolar epithelial cells isolated from bleomycin injured lungs; test: Gene expression analysis in alveolar epithelial cells isolated from bleomycin injured lungs before and after T3 aerosolized delivery; format: in vivo
Excerpt: Experiments were run to delineate a potential mechanistic pathway through which thyroid hormones exert their protective role in the development and progression of experimental lung fibrosis. […] Similar experiments were run in A549 lung adenocarcinoma cell lines before and after thyroid hormone administration.

[5] = treatment injected at day 3 after bleomycin, sacrificed day 14 (FIG. 4A)
[6] = treatment injected at day 7 after bleomycin, sacrificed day 14 (FIG. 4C)

Structure (SMILES): N[C@@H](Cc1cc(I)c(Oc2ccc(O)c(I)c2)c(I)c1)C(=O)O [T3, (S)-2-amino-3-[4-(4-hydroxy-3-iodophenoxy)-3,5-diiodophenyl]propanoic acid]
- Bleomycin-induced fibrosis (overall) ([1]; T3 40 μg/kg nebulized and inhaled day 10, 12, 14, 16 after bleomycin 1.5 U/kg, sacrificed day 21): blunts bleomycin-induced fibrosis
- Hydroxyproline content ([1]; T3 inhalation 40 μg/kg day 10, 12, 14, 16 after bleomycin 1.5 U/kg, day 21 (FIG. 5A)): statistically significant blunting; also recorded: declines hydroxyproline content
- T3 level in the sera by ELISA ([2]; after T3 inhalation 40 μg/kg in bleomycin mice, n=10 (FIG. 5D)): does not affect the level of T3
- Survival / bleomycin-induced mortality (Kaplan-Meier) [3]: significant increase in survival; also recorded: reduces mortality
- Gene expression in alveolar epithelial cells [4]: upregulation of several anti-apoptotic genes

Structure (SMILES): CCCc1cc(=O)[nH]c(=S)[nH]1 [PTU, propylthiouracil]
- Bleomycin-induced lung fibrosis (overall severity) ([1]; bleomycin 1.5 U/Kg intratracheally, PTU 100 mg/kg intraperitoneally at day 3 and day 7, sacrificed day 14): more severe bleomycin-induced lung fibrosis; also recorded: aggravates fibrosis
- Hydroxyproline content in the right lungs ([1]; bleomycin 1.5 U/Kg, PTU 100 mg/kg intraperitoneally day 3 and day 7, day 14 (FIG. 3A)): significant elevation
- Collagen content in the right lungs ([1]; bleomycin 1.5 U/Kg, PTU 100 mg/kg intraperitoneally day 3 and day 7, day 14 (FIG. 3B)): significant elevation
- Hydroxyproline measurements [1, 5]: significant increase
- Hydroxyproline measurements [1, 6]: significant increase

Structure (SMILES): N[C@@H](Cc1cc(I)c(Oc2cc(I)c(O)c(I)c2)c(I)c1)C(=O)O [T4, (S)-2-amino-3-[4-(4-hydroxy-3,5-diiodophenoxy)-3,5-diiodophenyl]propanoic acid]
- Pulmonary fibrosis / fibrotic process (fibrotic markers and structural changes) ([1]; T4 after bleomycin instillation, intraperitoneal, 40 mg/kg or 50 mg/kg, sacrificed day 14): significant attenuation of the fibrotic process; also recorded: attenuates the pulmonary fibrosis
- Gene expressions of Col1a1, Col3a1, S100a4 and Acta2 (QRT-PCR) ([1]; T4 injected at day 3 after bleomycin, n=8, p<0.05 (FIG. 4B)): markedly suppresses
- Gene expressions of Col1a1, Col3a1, S100a4 and Acta2 (QRT-PCR) ([1]; T4 injected at day 7 after bleomycin, n=8, p<0.05 (FIG. 4D)): significantly suppresses
- Fibrotic and inflammatory response to bleomycin, histological examination by masson trichrome staining ([1]; T4 treatment at either day 3 or day 7 (FIG. 4G)): attenuated
- Hydroxyproline measurements [1, 5]: no statistically significant reduction; also recorded: no statistical difference in the T4 treated group from the saline group
- Hydroxyproline measurements [1, 6]: no statistically significant reduction; also recorded: no statistical difference in the T4 treated group from the saline group
- Circulating levels of T3 ([2]; after T4 systemic administration in bleomycin mice, n=10, p<0.05 (FIG. 4E)): statistically significant increase
